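Compound exposure: 48 hours, 5 concentrations, 96-well plates. At the GI50, growth is halved. TGI denotes the concentration required for complete inhibition of growth.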
How the values were obtained:
Test in all cases: NCI anticancer screen, dose series, 48 h; in the data active = GI50 below about 0.43 µM; inactive = the rest
786-0 renal = system: 786-0 renal
A498 renal = system: A498 renal
A549 NSCLC = system: A549 NSCLC
ACHN renal = system: ACHN renal
BT-549 breast = system: BT-549 breast
CAKI-1 renal = system: CAKI-1 renal
CCRF-CEM leukemia = system: CCRF-CEM leukemia
COLO 205 colon = system: COLO 205 colon
DU-145 prostate = system: DU-145 prostate
EKVX NSCLC = system: EKVX NSCLC
HCC-2998 colon = system: HCC-2998 colon
HCT-116 colon = system: HCT-116 colon
HCT-15 colon = system: HCT-15 colon
HL-60(TB) leukemia = system: HL-60(TB) leukemia
HOP-62 NSCLC = system: HOP-62 NSCLC
HOP-92 NSCLC = system: HOP-92 NSCLC
HS 578T breast = system: HS 578T breast
HT29 colon = system: HT29 colon
IGROV1 ovarian = system: IGROV1 ovarian
K-562 leukemia = system: K-562 leukemia
KM12 colon = system: KM12 colon
LOX IMVI melanoma = system: LOX IMVI melanoma
M14 melanoma = system: M14 melanoma
MALME-3M melanoma = system: MALME-3M melanoma
MCF7 breast = system: MCF7 breast
MDA-MB-231 breast = system: MDA-MB-231 breast
MDA-MB-435 = system: MDA-MB-435
MDA-MB-468 breast = system: MDA-MB-468 breast
MOLT-4 leukemia = system: MOLT-4 leukemia
NCI-H226 lung = system: NCI-H226 lung
NCI-H23 lung = system: NCI-H23 lung
NCI-H460 lung = system: NCI-H460 lung
NCI-H522 lung = system: NCI-H522 lung
NCI/ADR-RES ovarian = system: NCI/ADR-RES ovarian
OVCAR-3 ovarian = system: OVCAR-3 ovarian
OVCAR-4 ovarian = system: OVCAR-4 ovarian
OVCAR-5 ovarian = system: OVCAR-5 ovarian
OVCAR-8 ovarian = system: OVCAR-8 ovarian
PC-3 prostate = system: PC-3 prostate
RPMI-8226 leukemia = system: RPMI-8226 leukemia
RXF 393 renal = system: RXF 393 renal
SF-268 CNS = system: SF-268 CNS
SF-295 CNS = system: SF-295 CNS
SF-539 CNS = system: SF-539 CNS
SK-MEL-2 melanoma = system: SK-MEL-2 melanoma
SK-MEL-28 melanoma = system: SK-MEL-28 melanoma
SK-MEL-5 melanoma = system: SK-MEL-5 melanoma
SK-OV-3 ovarian = system: SK-OV-3 ovarian
SN12C renal = system: SN12C renal
SNB-19 CNS = system: SNB-19 CNS
SNB-75 CNS = system: SNB-75 CNS
SR leukemia = system: SR leukemia
SW-620 colon = system: SW-620 colon
T-47D breast = system: T-47D breast
TK-10 renal = system: TK-10 renal
U251 CNS = system: U251 CNS
UACC-257 melanoma = system: UACC-257 melanoma
UACC-62 melanoma = system: UACC-62 melanoma
UO-31 renal = system: UO-31 renal

COc1cc2c(c(OC)c1OC)C(=O)CC(c1cccc(NC(=O)c3cc([N+](=O)[O-])ccc3Cl)c1)O2 (stereo not drawn)
26.9 µM: TGI (NCI-H23 lung)
29.5 µM: TGI (NCI/ADR-RES ovarian)
> 100 µM: TGI (786-0 renal) | TGI (A498 renal) | TGI (A549 NSCLC) | TGI (CAKI-1 renal) | TGI (DU-145 prostate) | TGI (EKVX NSCLC) | TGI (HCC-2998 colon) | TGI (HOP-62 NSCLC) | TGI (HS 578T breast) | TGI (HT29 colon) | TGI (IGROV1 ovarian) | TGI (K-562 leukemia) | TGI (MALME-3M melanoma) | TGI (MCF7 breast) | TGI (MOLT-4 leukemia) | TGI (OVCAR-3 ovarian) | TGI (OVCAR-4 ovarian) | TGI (OVCAR-5 ovarian) | TGI (PC-3 prostate) | TGI (SF-268 CNS) | TGI (SF-295 CNS) | TGI (SK-MEL-28 melanoma) | TGI (SK-OV-3 ovarian) | TGI (SNB-19 CNS) | TGI (SR leukemia) | TGI (TK-10 renal) | TGI (UACC-257 melanoma) | TGI (UO-31 renal)
17.5 µM: TGI (NCI-H226 lung)
5.61 µM: TGI (SW-620 colon)
16.8 µM: TGI (BT-549 breast)
inactive: GI50 (786-0 renal) 17.5 µM | GI50 (A498 renal) 45 µM | GI50 (A549 NSCLC) 6.66 µM | GI50 (ACHN renal) 5 µM | GI50 (BT-549 breast) 2.27 µM | GI50 (CAKI-1 renal) 3.22 µM | GI50 (CCRF-CEM leukemia) 2.44 µM | GI50 (COLO 205 colon) 5.49 µM | GI50 (DU-145 prostate) 5.48 µM | GI50 (EKVX NSCLC) 21.9 µM | GI50 (HCC-2998 colon) 13.7 µM | GI50 (HCT-116 colon) 1.69 µM | GI50 (HCT-15 colon) 2.04 µM | GI50 (HL-60(TB) leukemia) 4.91 µM | GI50 (HOP-62 NSCLC) 60.9 µM | GI50 (HOP-92 NSCLC) 2.73 µM | GI50 (HS 578T breast) 3.98 µM | GI50 (HT29 colon) 7.21 µM | GI50 (IGROV1 ovarian) 11.3 µM | GI50 (K-562 leukemia) 4.42 µM | GI50 (KM12 colon) 3.86 µM | GI50 (LOX IMVI melanoma) 1.59 µM | GI50 (M14 melanoma) 3.17 µM | GI50 (MALME-3M melanoma) 18.2 µM | GI50 (MCF7 breast) 2.56 µM | GI50 (MDA-MB-231 breast) 3.96 µM | GI50 (MDA-MB-435) 3.51 µM | GI50 (MDA-MB-468 breast) 2.3 µM | GI50 (MOLT-4 leukemia) 2.56 µM | GI50 (NCI-H226 lung) 3.37 µM | GI50 (NCI-H23 lung) 5.34 µM | GI50 (NCI-H460 lung) 8.14 µM | GI50 (NCI-H522 lung) 3.04 µM | GI50 (NCI/ADR-RES ovarian) 4.99 µM | GI50 (OVCAR-3 ovarian) 5.12 µM | GI50 (OVCAR-4 ovarian) 26.6 µM | GI50 (OVCAR-5 ovarian) 22.4 µM | GI50 (OVCAR-8 ovarian) 3.47 µM | GI50 (PC-3 prostate) 7.27 µM | GI50 (RPMI-8226 leukemia) 3.14 µM | GI50 (RXF 393 renal) 4.02 µM | GI50 (SF-268 CNS) 6.92 µM | GI50 (SF-295 CNS) 7.61 µM | GI50 (SF-539 CNS) 3.54 µM | GI50 (SK-MEL-2 melanoma) 10.8 µM | GI50 (SK-MEL-28 melanoma) 15.5 µM | GI50 (SK-MEL-5 melanoma) 8.99 µM | GI50 (SK-OV-3 ovarian) 38.8 µM | GI50 (SN12C renal) 2.74 µM | GI50 (SNB-19 CNS) 18.6 µM | GI50 (SNB-75 CNS) 2.53 µM | GI50 (SR leukemia) 2.39 µM | GI50 (SW-620 colon) 2.14 µM | GI50 (T-47D breast) 3.74 µM | GI50 (TK-10 renal) 33.6 µM | GI50 (U251 CNS) 4.32 µM | GI50 (UACC-257 melanoma) 6.27 µM | GI50 (UACC-62 melanoma) 4.17 µM | GI50 (UO-31 renal) 4.78 µM
17.8 µM: TGI (HOP-92 NSCLC)
20.5 µM: TGI (OVCAR-8 ovarian)
3.64 µM: TGI (HCT-116 colon)
34.4 µM: TGI (RXF 393 renal)
38.1 µM: TGI (RPMI-8226 leukemia)
58.7 µM: TGI (T-47D breast)
6.08 µM: TGI (HCT-15 colon)
3.56 µM: TGI (LOX IMVI melanoma)
19.1 µM: TGI (MDA-MB-231 breast)
45.3 µM: TGI (UACC-62 melanoma)
7.84 µM: TGI (CCRF-CEM leukemia)
5.92 µM: TGI (MDA-MB-468 breast)
27.8 µM: TGI (ACHN renal)
24.8 µM: TGI (MDA-MB-435)
15.5 µM: TGI (NCI-H522 lung)
25 µM: TGI (U251 CNS)
26.3 µM: TGI (SNB-75 CNS)
21 µM: TGI (COLO 205 colon)
15.9 µM: TGI (M14 melanoma)
18.9 µM: TGI (SF-539 CNS)
73.3 µM: TGI (SK-MEL-5 melanoma)
82.9 µM: TGI (NCI-H460 lung)
14.6 µM: TGI (SN12C renal)
40.1 µM: TGI (SK-MEL-2 melanoma)
33.8 µM: TGI (KM12 colon)
57.7 µM: TGI (HL-60(TB) leukemia)

— PubChem BioAssay (NCI)
